What follows are molecules tested against T1, AKT1 (Homo sapiens, UniProt P31749) (assay: HTS ATP-utilizing enzyme assay, off-chip mobility-shift (Caliper HTS 250)). Details: kinase named = inhibitory activity/selectivity; test compound 10 μM; active = greater than three-sigma from mean.
T1 construct: purchased Upstate 14-276
Type: biochemical
How it was run: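 AKT1 activity was measured by off-chip mobility shift (Caliper HTS 250) as the ratio of peptide substrate to phosphorylated product. Test compound was at 10 μM, with 2.5 h incubation at 20–22° C. EDTA wells served as 100% control and DMSO wells as 0%. Hits were called at three-sigma limits.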

T1 sequence (P31749 whole entry): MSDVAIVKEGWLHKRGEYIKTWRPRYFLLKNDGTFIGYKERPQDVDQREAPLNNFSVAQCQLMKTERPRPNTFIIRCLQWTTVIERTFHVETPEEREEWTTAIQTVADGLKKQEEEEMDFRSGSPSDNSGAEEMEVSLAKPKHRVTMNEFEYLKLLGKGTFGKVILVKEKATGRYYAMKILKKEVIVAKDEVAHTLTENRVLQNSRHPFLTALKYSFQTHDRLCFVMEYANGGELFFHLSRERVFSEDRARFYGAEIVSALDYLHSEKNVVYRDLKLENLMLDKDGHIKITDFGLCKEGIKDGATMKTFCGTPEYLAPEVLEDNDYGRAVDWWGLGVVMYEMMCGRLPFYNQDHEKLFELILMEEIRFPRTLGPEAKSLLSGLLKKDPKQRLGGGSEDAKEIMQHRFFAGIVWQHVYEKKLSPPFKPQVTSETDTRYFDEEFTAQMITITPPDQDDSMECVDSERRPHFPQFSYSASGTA

Compound | Activity
CS(=O)(=O)Nc1cccc(NC(=O)c2csc(N(CCCN3CCOCC3)C(=O)c3cccs3)n2)c1 [N-(3-(methylsulfonamido)phenyl)-2-(N-(3-morpholinopropyl)thiophene-2-carboxamido)thiazole-4-carboxamide] | AKT1
CN1CCN(CCCN(C(=O)c2ccccc2)c2nc(-c3ccccc3)cs2)CC1 [N-(3-(4-methylpiperazin-1-yl)propyl)-N-(4-phenylthiazol-2-yl)benzamide] | AKT1
O=C(c1cccs1)N(CCCN1CCOCC1)c1nc(-c2cccc(C(F)(F)F)c2)cs1 [N-(3-morpholinopropyl)-N-(4-(3-(trifluoromethyl)phenyl)thiazol-2-yl)thiophene-2-carboxamide] | AKT1
CN(C)C(=O)[C@@H]1CCCN1CCCN(C(=O)c1cccs1)c1nc(-c2cc3ccccc3o2)cs1 [(S)-1-(3-(N-(4-(benzofuran-2-yl)thiazol-2-yl)thiophene-2-carboxamido)propyl)-N,N-dimethylpyrrolidine-2-carboxamide] | AKT1
O=C(CCN(C(=O)c1cccs1)c1nc(-c2cc3ccccc3o2)cs1)N1CCCC(O)C1 (stereo not drawn) [N-(4-(benzofuran-2-yl)thiazol-2-yl)-N-(3-(3-hydroxypiperidin-1-yl)-3-oxopropyl)thiophene-2-carboxamide] | AKT1
COc1ccc2oc(-c3csc(N(CCCN4CCOCC4)C(=O)c4cccs4)n3)cc2c1 [N-(4-(5-methoxybenzofuran-2-yl)thiazol-2-yl)-N-(3-morpholinopropyl)thiophene-2-carboxamide] | AKT1
O=C(c1cccs1)N(CCCN1CCOCC1)c1nc(-c2cccc(Br)c2)cs1 [N-(4-(3-bromophenyl)thiazol-2-yl)-N-(3-morpholinopropyl)thiophene-2-carboxamide] | AKT1
NC(=O)C1CCCN(C(=O)CCCN(C(=O)c2cccs2)c2nc(-c3cc4ccccc4o3)cs2)C1 (stereo not drawn) [1-(4-(N-(4-(benzofuran-2-yl)thiazol-2-yl)thiophene-2-carboxamido)butanoyl)piperidine-3-carboxamide] | AKT1
CCN(CC)CCCN(C(=O)c1ccco1)c1nc(-c2ccccc2)cs1 [N-(3-(diethylamino)propyl)-N-(4-phenylthiazol-2-yl)furan-2-carboxamide] | AKT1
COc1ccc(-c2csc(N(CCCN3CCOCC3)C(=O)c3occc3C)n2)cc1 [N-(4-(4-methoxyphenyl)thiazol-2-yl)-3-methyl-N-(3-morpholinopropyl)furan-2-carboxamide] | AKT1
CCOC(=O)CN1CCN(CCCN(C(=O)c2cccs2)c2nc(-c3cc4ccccc4o3)cs2)CC1 [ethyl 2-(4-(3-(N-(4-(benzofuran-2-yl)thiazol-2-yl)thiophene-2-carboxamido)propyl)piperazin-1-yl)acetate] | AKT1
CC(=O)NC1CCN(CCCN(C(=O)c2cccs2)c2nc(-c3cc4ccccc4o3)cs2)C1 (stereo not drawn) [N-(3-(3-acetamidopyrrolidin-1-yl)propyl)-N-(4-(benzofuran-2-yl)thiazol-2-yl)thiophene-2-carboxamide] | AKT1
O=C(c1cccs1)N(CCCN1CCCC1)c1nc(-c2ccccc2)cs1 [N-(4-phenylthiazol-2-yl)-N-(3-(pyrrolidin-1-yl)propyl)thiophene-2-carboxamide] | AKT1
CCN(CC)C1CCN(C(=O)CCCN(C(=O)c2cccs2)c2nc(-c3cc4ccccc4o3)cs2)CC1 [N-(4-(benzofuran-2-yl)thiazol-2-yl)-N-(4-(4-(diethylamino)piperidin-1-yl)-4-oxobutyl)thiophene-2-carboxamide] | AKT1
O=C(c1ccco1)N(CCCN1CCOCC1)c1nc(-c2cc(-c3ccccc3)no2)cs1 [N-(3-morpholinopropyl)-N-(4-(3-phenylisoxazol-5-yl)thiazol-2-yl)furan-2-carboxamide] | AKT1
CC(=O)N(C)C1CCN(CCCN(C(=O)c2cccs2)c2nc(-c3cc4ccccc4o3)cs2)C1 (stereo not drawn) [N-(4-(benzofuran-2-yl)thiazol-2-yl)-N-(3-(3-(N-methylacetamido)pyrrolidin-1-yl)propyl)thiophene-2-carboxamide] | AKT1
COc1ccc(-c2csc(N(CCCN3CCOCC3)C(=O)c3ccccc3F)n2)cc1 [2-fluoro-N-(4-(4-methoxyphenyl)thiazol-2-yl)-N-(3-morpholinopropyl)benzamide] | AKT1
O=C(c1cccs1)N(CCCN1CCN(CCO)CC1)c1nc(-c2cc3ccccc3o2)cs1 [N-(4-(benzofuran-2-yl)thiazol-2-yl)-N-(3-(4-(2-hydroxyethyl)piperazin-1-yl)propyl)thiophene-2-carboxamide] | AKT1
NC(=O)c1cccc(NC(=O)c2csc(N(CCCN3CCOCC3)C(=O)c3cccs3)n2)c1 [N-(3-carbamoylphenyl)-2-(N-(3-morpholinopropyl)thiophene-2-carboxamido)thiazole-4-carboxamide] | AKT1
O=C(c1cccs1)N(CCCCN1CCOCC1)c1nc(-c2cc3ccccc3o2)cs1 [N-(4-(benzofuran-2-yl)thiazol-2-yl)-N-(4-morpholinobutyl)thiophene-2-carboxamide] | AKT1

Compound | Activity
O=C(CCN1CCCCC1)NCCCN(C(=O)c1cccs1)c1nc(-c2cc3ccccc3o2)cs1 [N-(4-(benzofuran-2-yl)thiazol-2-yl)-N-(3-(3-(piperidin-1-yl)propanamido)propyl)thiophene-2-carboxamide] | AKT1
O=C(O)COc1cccc(-c2csc(N(CCCN3CCOCC3)C(=O)c3cccs3)n2)c1 [2-(3-(2-(N-(3-morpholinopropyl)thiophene-2-carboxamido)thiazol-4-yl)phenoxy)acetic acid] | AKT1
O=C(c1cccs1)N(CCCN1CCOCC1)c1nc(-c2cc(-c3ccccc3)no2)cs1 [N-(3-morpholinopropyl)-N-(4-(3-phenylisoxazol-5-yl)thiazol-2-yl)thiophene-2-carboxamide] | AKT1
CCCCCc1ccc(-c2csc(N(CCCN3CCOCC3)C(=O)c3cccs3)n2)cc1 [N-(3-morpholinopropyl)-N-(4-(4-pentylphenyl)thiazol-2-yl)thiophene-2-carboxamide] | AKT1
CN(C)C(=O)CN1CCN(CCCN(C(=O)c2cccs2)c2nc(-c3cc4ccccc4o3)cs2)CC1 [N-(4-(benzofuran-2-yl)thiazol-2-yl)-N-(3-(4-(2-(dimethylamino)-2-oxoethyl)piperazin-1-yl)propyl)thiophene-2-carboxamide] | AKT1
Cc1cccc(C(=O)N(CCCN2CCOCC2)c2nc(-c3ccccc3)cs2)c1 [3-methyl-N-(3-morpholinopropyl)-N-(4-phenylthiazol-2-yl)benzamide] | AKT1
COc1ccc(-c2csc(N(CCCN3CCCCCC3)C(=O)c3cccs3)n2)cc1 [N-(3-(azepan-1-yl)propyl)-N-(4-(4-methoxyphenyl)thiazol-2-yl)thiophene-2-carboxamide] | AKT1
CC(C)(C)OC(=O)NC1CCN(C(=O)CCCN(C(=O)c2cccs2)c2nc(-c3cc4ccccc4o3)cs2)C1 (stereo not drawn) [tert-butyl 1-(4-(N-(4-(benzofuran-2-yl)thiazol-2-yl)thiophene-2-carboxamido)butanoyl)pyrrolidin-3-ylcarbamate] | AKT1
COc1ccc(-c2csc(N(CCCc3ccccc3)C(=O)c3cccs3)n2)cc1OC [N-(4-(3,4-dimethoxyphenyl)thiazol-2-yl)-N-(3-phenylpropyl)thiophene-2-carboxamide] | AKT1
CC(=O)NC1CCN(C(=O)CCN(C(=O)c2cccs2)c2nc(-c3cc4ccccc4o3)cs2)C1 (stereo not drawn) [N-(3-(3-acetamidopyrrolidin-1-yl)-3-oxopropyl)-N-(4-(benzofuran-2-yl)thiazol-2-yl)thiophene-2-carboxamide] | AKT1
O=C(c1cccs1)N(CCCN1CCOCC1)c1nc(-c2cc3ccccc3[nH]2)cs1 [N-(4-(1H-indol-2-yl)thiazol-2-yl)-N-(3-morpholinopropyl)thiophene-2-carboxamide] | AKT1
O=C(O)[C@H]1CCCN1CCCN(C(=O)c1cccs1)c1nc(-c2cc3ccccc3o2)cs1 [(R)-1-(3-(N-(4-(benzofuran-2-yl)thiazol-2-yl)thiophene-2-carboxamido)propyl)pyrrolidine-2-carboxylic acid] | AKT1
O=C(c1ccccc1)N(CCCN1CCCCCC1)c1nc(-c2ccccc2)cs1 [N-(3-(azepan-1-yl)propyl)-N-(4-phenylthiazol-2-yl)benzamide] | AKT1
COc1ccc(-c2csc(N(CCCCCN3CCOCC3)C(=O)c3cccs3)n2)cc1OC [N-(4-(3,4-dimethoxyphenyl)thiazol-2-yl)-N-(5-morpholinopentyl)thiophene-2-carboxamide] | AKT1
COc1ccc(-c2csc(N(CCCN3CCOCC3)C(=O)c3cccs3)n2)c(OC)n1 [N-(4-(2,6-dimethoxypyridin-3-yl)thiazol-2-yl)-N-(3-morpholinopropyl)thiophene-2-carboxamide] | AKT1
O=C(c1cccs1)N(CCCN1CCC[C@H]1CO)c1nc(-c2cc3ccccc3o2)cs1 [(S)—N-(4-(benzofuran-2-yl)thiazol-2-yl)-N-(3-(2-(hydroxymethyl)pyrrolidin-1-yl)propyl)thiophene-2-carboxamide] | AKT1
O=C(c1cccs1)N(CCCN1CCOCC1)c1nc(-c2cccc(F)c2)cs1 [N-(4-(3-fluorophenyl)thiazol-2-yl)-N-(3-morpholinopropyl)thiophene-2-carboxamide] | AKT1
COc1ccc(-c2csc(N(CCCN3CCN(C)CC3)C(=O)c3cccs3)n2)cc1OC [N-(4-(3,4-dimethoxyphenyl)thiazol-2-yl)-N-(3-(4-methylpiperazin-1-yl)propyl)thiophene-2-carboxamide] | AKT1
O=C(NCCCO)c1ccc(-c2csc(N(CCCN3CCOCC3)C(=O)c3cccs3)n2)cc1 [N-(4-(4-(3-hydroxypropylcarbamoyl)phenyl)thiazol-2-yl)-N-(3-morpholinopropyl)thiophene-2-carboxamide] | AKT1

From patent US7795290B2 (Genentech, Inc., priority 2004, dated 2010)
